Measured values reported in US9353072B2, “Antimicrobial substituted thiazoles and methods of use” (Purdue Research Foundation, priority 2012, dated 2016).
≈ marks a conversion by molar mass, not a printed value. Like-named read-outs stand apart in the source and are kept apart here.

Tests used:
[1] = test system: NRS119; test: MIC/MBC broth microdilution, NRS119; format: cell-based; conditions: Staphylococcus aureus
Protocol: (§1) Determination of minimum inhibitory concentration (MIC). The MICs of the lead thiazole compound (compound 1a) and nine derivatives tested against all 18 MRSA strains were determined, in triplicate samples, using the broth microdilution method in accordance with the recommendations contained in the CLSI guidelines.

[2] = test system: VRSA (VRS10); test: MIC/MBC broth microdilution, VRSA (VRS10); format: cell-based, Staphylococcus aureus; conditions: Staphylococcus aureus; for MBC: read-out: Minimum Bactericidal Concentration; for MIC: read-out: Minimum Inhibitory Concentration
Protocol: as §1

[3] = test system: MRSA ATCC 43300; test: MIC/MBC broth microdilution, MRSA ATCC 43300; format: cell-based, Staphylococcus aureus; conditions: Staphylococcus aureus
Protocol: as §1

[4] = test system: MRSA ATCC 700699 (NRS1, VISA); test: MIC/MBC broth microdilution, NRS1 (ATCC 700699); format: cell-based; conditions: Staphylococcus aureus
Protocol: as §1

[5] = test system: VISA LIM 3 (NRS37); test: MIC/MBC broth microdilution, NRS37 (VISA LIM 3); format: cell-based; conditions: Staphylococcus aureus
Protocol: as §1

[6] = test system: MRSA USA400 (NRS123); test: MIC/MBC broth microdilution, NRS123 (USA400); format: cell-based; conditions: Staphylococcus aureus
Protocol: as §1

[7] = test system: MRSA USA500 (NRS385); test: MIC/MBC broth microdilution, NRS385 (USA500); format: cell-based; conditions: Staphylococcus aureus
Protocol: as §1

[8] = test system: NRS107; test: MIC/MBC broth microdilution, NRS107; format: cell-based; conditions: Staphylococcus aureus
Protocol: as §1

[9] = test system: VISA HIP07256 (NRS19); test: MIC/MBC broth microdilution, NRS19 (VISA HIP07256); format: cell-based; conditions: Staphylococcus aureus
Protocol: as §1

[10] = test system: NRS194; test: MIC/MBC broth microdilution, NRS194; format: cell-based; conditions: Staphylococcus aureus
Protocol: as §1

[11] = test system: MRSA NRS384 (USA300); test: MIC/MBC broth microdilution, NRS384 (USA300); format: cell-based; conditions: Staphylococcus aureus
Protocol: as §1

[12] = NRS 119 / VISA, read-out: Minimum Bactericidal Concentration
[13] = NRS 119 / VISA, read-out: Minimum Inhibitory Concentration
[14] = read-out: Minimum Bactericidal Concentration
[15] = read-out: Minimum Inhibitory Concentration
[16] = NRS 119 / VISA, Table 7, VISA (NRS119), read-out: Minimum Bactericidal Concentration
[17] = NRS 119 / VISA, Table 7, VISA (NRS119), read-out: Minimum Inhibitory Concentration
[18] = Table 8, NRS37 (VISA), read-out: MBC
[19] = Table 8, NRS37 (VISA), read-out: MIC
[20] = Table 6, MRSA ATCC 43300, 128 μM down to 1.0 μM, 20 hours, read-out: MIC
[21] = Table 6, MRSA ATCC 43300, plating on TSA, 20 hour incubation, read-out: MBC
[22] = Table 7, MRSA (ATCC 43300), read-out: Minimum Bactericidal Concentration
[23] = Table 7, MRSA (ATCC 43300), read-out: Minimum Inhibitory Concentration
[24] = Table 8, ATCC 43300, read-out: MBC
[25] = Table 8, ATCC 43300, read-out: MIC
[26] = Table 7, VISA (NRS1), read-out: Minimum Bactericidal Concentration
[27] = Table 7, VISA (NRS1), read-out: Minimum Inhibitory Concentration
[28] = Table 8, NRS1 (VISA), read-out: MBC
[29] = Table 8, NRS1 (VISA), triplicates, 20 hours, read-out: MIC
[30] = Table 8, NRS19 (VISA), read-out: MBC
[31] = Table 8, NRS19 (VISA), read-out: MIC

CCCCCCCC#Cc1ccc(-c2nc(C)c(/C(C)=N/NC(=N)N)s2)cc1 [Compound M17, (E)-2-(1-(4-methyl-2-(4-(non-1-yn-1-yl)phenyl)thiazol-5-yl)ethylidene) hydrazinecarboximidamide]
MBC [1, 12]: 64 µM (≈ 25.3 µg/mL) | MIC [1, 13]: 32 µM (≈ 12.7 µg/mL) | MBC ([2]; VRSA): 64 µM (≈ 25.3 µg/mL) | MIC ([2]; VRSA): 32 µM (≈ 12.7 µg/mL) | MIC ([3]; 20 h): 32 µM (≈ 12.7 µg/mL) | MBC [3, 14]: 64 µM (≈ 25.3 µg/mL) | MIC [3, 15]: 32 µM (≈ 12.7 µg/mL) | MBC [4, 14]: 32 µM (≈ 12.7 µg/mL) | MIC [4, 15]: 16 µM (≈ 6.33 µg/mL)

C/C(=N/NC(=N)N)c1sc(-c2ccc(-c3ccc(C(F)(F)F)cc3)cc2)nc1C [Compound M13]
MBC [1, 16]: 32 µM (≈ 13.4 µg/mL) | MIC [1, 17]: 16 µM (≈ 6.68 µg/mL) | MBC ([1]; Table 8, NRS119, read-out: MBC): 16 µM (≈ 6.68 µg/mL) | MIC ([1]; Table 8, NRS119, read-out: MIC): 16 µM (≈ 6.68 µg/mL) | MBC [5, 18]: 8 µM (≈ 3.34 µg/mL) | MIC [5, 19]: 8 µM (≈ 3.34 µg/mL) | MBC ([2]; Table 7, VRSA (VRS10)): 16 µM (≈ 6.68 µg/mL) | MIC ([2]; Table 7, VRSA (VRS10)): 4 µM (≈ 1.67 µg/mL) | MIC [3, 20]: 8 µM (≈ 3.34 µg/mL) | MBC [3, 21]: 16 µM (≈ 6.68 µg/mL) | MBC [3, 22]: 16 µM (≈ 6.68 µg/mL) | MIC [3, 23]: 8 µM (≈ 3.34 µg/mL) | MBC [3, 24]: 8 µM (≈ 3.34 µg/mL) | MIC [3, 25]: 8 µM (≈ 3.34 µg/mL) | MBC ([6]; Table 8, NRS123, read-out: MBC): 32 µM (≈ 13.4 µg/mL) | MIC ([6]; Table 8, NRS123, read-out: MIC): 16 µM (≈ 6.68 µg/mL) | MBC [4, 26]: 8 µM (≈ 3.34 µg/mL) | MIC [4, 27]: 4 µM (≈ 1.67 µg/mL) | MBC [4, 28]: 8 µM (≈ 3.34 µg/mL) | MIC [4, 29]: 8 µM (≈ 3.34 µg/mL) | MBC ([7]; Table 8, NRS385, read-out: MBC): 8 µM (≈ 3.34 µg/mL) | MIC ([7]; Table 8, NRS385, read-out: MIC): 8 µM (≈ 3.34 µg/mL) | MBC ([8]; Table 8, read-out: MBC): 16 µM (≈ 6.68 µg/mL) | MIC ([8]; Table 8, read-out: MIC): 8 µM (≈ 3.34 µg/mL) | MBC [9, 30]: 8 µM (≈ 3.34 µg/mL) | MIC [9, 31]: 8 µM (≈ 3.34 µg/mL) | MBC ([10]; Table 8, read-out: MBC): 32 µM (≈ 13.4 µg/mL) | MIC ([10]; Table 8, read-out: MIC): 16 µM (≈ 6.68 µg/mL) | MBC ([11]; Table 8, NRS384, read-out: MBC): 16 µM (≈ 6.68 µg/mL) | MIC ([11]; Table 8, NRS384, read-out: MIC): 16 µM (≈ 6.68 µg/mL)

C/C(=N/NC(=N)N)c1sc(-c2ccc(-c3ccc(F)cc3)cc2)nc1C [Compound M12, (Z)-2-(1-(2-(4′-fluoro-[1,1′-biphenyl]-4-yl)-4-methylthiazol-5-yl)ethylidene)hydrazinecarboximidamide]
MBC [1, 16]: 16 µM (≈ 5.88 µg/mL) | MIC [1, 17]: 16 µM (≈ 5.88 µg/mL) | MBC ([1]; Table 8, NRS119, read-out: MBC): 32 µM (≈ 11.8 µg/mL) | MIC ([1]; Table 8, NRS119, read-out: MIC): 16 µM (≈ 5.88 µg/mL) | MBC [5, 18]: 16 µM (≈ 5.88 µg/mL) | MIC [5, 19]: 8 µM (≈ 2.94 µg/mL) | MBC ([2]; Table 7, VRSA (VRS10)): 64 µM (≈ 23.5 µg/mL) | MIC ([2]; Table 7, VRSA (VRS10)): 8 µM (≈ 2.94 µg/mL) | MIC [3, 20]: 4 µM (≈ 1.47 µg/mL) | MBC [3, 21]: > 16 µM | MBC [3, 22]: 16 µM (≈ 5.88 µg/mL) | MIC [3, 23]: 4 µM (≈ 1.47 µg/mL) | MBC [3, 24]: 16 µM (≈ 5.88 µg/mL) | MIC [3, 25]: 16 µM (≈ 5.88 µg/mL) | MBC ([6]; Table 8, NRS123, read-out: MBC): 32 µM (≈ 11.8 µg/mL) | MIC ([6]; Table 8, NRS123, read-out: MIC): 16 µM (≈ 5.88 µg/mL) | MBC [4, 26]: 8 µM (≈ 2.94 µg/mL) | MIC [4, 27]: 4 µM (≈ 1.47 µg/mL) | MBC [4, 28]: 8 µM (≈ 2.94 µg/mL) | MIC [4, 29]: 8 µM (≈ 2.94 µg/mL) | MBC ([7]; Table 8, NRS385, read-out: MBC): 16 µM (≈ 5.88 µg/mL) | MIC ([7]; Table 8, NRS385, read-out: MIC): 16 µM (≈ 5.88 µg/mL) | MBC ([8]; Table 8, read-out: MBC): 16 µM (≈ 5.88 µg/mL) | MIC ([8]; Table 8, read-out: MIC): 8 µM (≈ 2.94 µg/mL) | MBC [9, 30]: 16 µM (≈ 5.88 µg/mL) | MIC [9, 31]: 16 µM (≈ 5.88 µg/mL) | MBC ([10]; Table 8, read-out: MBC): 32 µM (≈ 11.8 µg/mL) | MIC ([10]; Table 8, read-out: MIC): 16 µM (≈ 5.88 µg/mL) | MBC ([11]; Table 8, NRS384, read-out: MBC): 16 µM (≈ 5.88 µg/mL) | MIC ([11]; Table 8, NRS384, read-out: MIC): 16 µM (≈ 5.88 µg/mL)

C/C(=N\NC(=N)N)c1sc(-c2cccc(F)c2)nc1C [Compound M16, (E)-2-(1-(2-(3-fluorophenyl)-4-methylthiazol-5-yl)ethylidene)hydrazinecarboximidamide]
MBC ([1]; NRS119): 128 µM (≈ 37.3 µg/mL) | MIC ([1]; NRS119): 128 µM (≈ 37.3 µg/mL) | MBC [1, 12]: 64 µM (≈ 18.6 µg/mL) | MIC [1, 13]: 64 µM (≈ 18.6 µg/mL) | MBC [5]: 128 µM (≈ 37.3 µg/mL) | MIC [5]: 128 µM (≈ 37.3 µg/mL) | MBC ([2]; VRSA): 128 µM (≈ 37.3 µg/mL) | MIC ([2]; VRSA): 32 µM (≈ 9.32 µg/mL) | MBC [3]: 128 µM (≈ 37.3 µg/mL) | MIC [3]: 128 µM (≈ 37.3 µg/mL) | MIC ([3]; 20 h): 32 µM (≈ 9.32 µg/mL) | MBC [3, 14]: 64 µM (≈ 18.6 µg/mL) | MIC [3, 15]: 32 µM (≈ 9.32 µg/mL) | MBC [6]: 128 µM (≈ 37.3 µg/mL) | MIC [6]: 128 µM (≈ 37.3 µg/mL) | MBC [4]: 128 µM (≈ 37.3 µg/mL) | MIC ([4]; 20 h): 128 µM (≈ 37.3 µg/mL) | MBC [4, 14]: 64 µM (≈ 18.6 µg/mL) | MIC [4, 15]: 32 µM (≈ 9.32 µg/mL) | MBC [7]: 128 µM (≈ 37.3 µg/mL) | MIC [7]: 128 µM (≈ 37.3 µg/mL) | MBC [8]: 128 µM (≈ 37.3 µg/mL) | MIC [8]: 128 µM (≈ 37.3 µg/mL) | MBC [9]: 128 µM (≈ 37.3 µg/mL) | MIC [9]: 128 µM (≈ 37.3 µg/mL) | MBC [10]: 128 µM (≈ 37.3 µg/mL) | MIC [10]: 128 µM (≈ 37.3 µg/mL) | MBC [11]: 128 µM (≈ 37.3 µg/mL) | MIC [11]: 128 µM (≈ 37.3 µg/mL)
